# Earlier results, collected in patent publication US20160243144A1 (Oakdene Holdings LLC, priority 2015, published 2016).
# Tests used:
# [1] = particularly in patients with HE
# [2] = given orally
intra-subject variability in Cmax or AUC [1],time by which urinary excretion is essentially complete [2],urinary excretion [2],Compound
≥ 30 % CV,,,CO[C@H]1/C=C/O[C@@]2(C)Oc3c(C)c(O)c4c(O)c(c5c(nc6cc(C)ccn65)c4c3C2=O)NC(=O)/C(C)=C\C=C\[C@H](C)[C@H](O)[C@@H](C)[C@@H](O)[C@@H](C)[C@H](OC(C)=O)[C@@H]1C [Rifaximin]
,≤ 24 h,≤ 3%,OC[C@H]1O[C@@H](O[C@@H]2[C@@H](CO)OC(O)(CO)[C@H]2O)[C@H](O)[C@@H](O)[C@H]1O (mixture of isomers) [lactulose]
